# Source: the supplement of paper PMC11368000
# Legend:
# Conditions in all cases: exposure time: 90 min
# 1434 [1] = donor line of iPSC-derived cardiomyocytes; test: POD (EC05) for increase in beat frequency (positive chronotrope) vs vehicle; higher = less potent (higher point of departure)
# Description: (§1)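 Human iPSC-derived cardiomyocytes from 16 donors were exposed for 90 min at 37 °C to each PFAS at 0.1, 1, 10 and 100 µM in 0.5% DMSO, 384-well plates. Kinetic Ca2+ flux (FLIPR) and Hoechst nuclei counts were normalised to vehicle wells and fitted with a hierarchical Bayesian Hill model to give donor-specific PODs: EC05 for beat-rate increase or decrease and for decay-to-rise ratio increase (QT proxy), EC95 for peak-frequency loss (asystole), EC10 for total cell number loss. 0.03 µM is the lower bound.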
# 11235 [2] = donor line of iPSC-derived cardiomyocytes; test: as above
# Description: as §1
# 1083 = donor line of iPSC-derived cardiomyocytes; test: as above
# Description: as §1
# 1309 = donor line of iPSC-derived cardiomyocytes; test: as above
# Description: as §1
# 1565 [3] = donor line of iPSC-derived cardiomyocytes; test: as above
# Description: as §1
# 30171 [4] = donor line of iPSC-derived cardiomyocytes; test: as above
# Description: as §1
# 1392 [5] = donor line of iPSC-derived cardiomyocytes; test: as above
# Description: as §1
# 1118 = donor line of iPSC-derived cardiomyocytes; test: as above
# Description: as §1
# 1368 = donor line of iPSC-derived cardiomyocytes; test: as above
# Description: as §1
# 1516 = donor line of iPSC-derived cardiomyocytes; test: as above
# Description: as §1
# 20032 [6] = donor line of iPSC-derived cardiomyocytes; test: as above
# Description: as §1
# 1434 [7] = test: POD (EC10) for decrease in total cell number (cytotoxicity) vs vehicle; higher = less potent (higher point of departure)
# In short: (§2)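 In 384-well plates, cardiomyocytes made from iPSCs of 16 human donors were cultured for 14 days before a 90 min, 37 °C exposure to final concentrations of 0.1, 1, 10 and 100 µM with 0.5% DMSO. Per-field nuclear counts from MetaXpress, normalised to vehicle, were fitted with hierarchical Bayesian Hill models using a 10% decrease. These fits yielded a cytotoxicity point of departure for each donor.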
# 11235 [8] = test: as above
# In short: as §2
# 30145 = donor line of iPSC-derived cardiomyocytes; test: as above
# In short: as §2
# 1531 = donor line of iPSC-derived cardiomyocytes; test: as above
# In short: as §2
# 20084 = donor line of iPSC-derived cardiomyocytes; test: as above
# In short: as §2
# 1565 [9] = test: as above
# In short: as §2
# 30171 [10] = test: as above
# In short: as §2
# 1392 [11] = test: as above
# In short: as §2
# 20032 [12] = test: as above
# In short: as §2
SMILES,POD vs vehicle 1434 [1] [µM],POD vs vehicle 11235 [2] [µM],POD vs vehicle 1083 [µM],POD vs vehicle 1309 [µM],POD vs vehicle 1565 [3] [µM],POD vs vehicle 30171 [4] [µM],POD vs vehicle 1392 [5] [µM],POD vs vehicle 1118 [µM],POD vs vehicle 1368 [µM],POD vs vehicle 1516 [µM],POD vs vehicle 20032 [6] [µM],POD vs vehicle 1434 [7] [µM],POD vs vehicle 11235 [8] [µM],POD vs vehicle 30145 [µM],POD vs vehicle 1531 [µM],POD vs vehicle 20084 [µM],POD vs vehicle 1565 [9] [µM],POD vs vehicle 30171 [10] [µM],POD vs vehicle 1392 [11] [µM],POD vs vehicle 20032 [12] [µM]
NC(=O)C(F)(F)C(F)(F)C(F)(F)C(F)F,> 100,> 100,> 100,> 100,> 100,> 100,> 100,> 100,> 100,> 100,> 100,> 100,> 100,> 100,> 100,> 100,> 100,0.93,> 100,> 100
"OCC(O)CC(F)(F)C(F)(F)C(F)(F)C(F)(F)C(F)(F)C(F)(F)C(F)(F)C(F)(F)F (stereo not given) [1-(Perfluorofluorooctyl)propane-2,3-diol]",0.19,0.231,> 100,0.394,> 100,0.136,> 100,3.1,> 100,0.516,> 100,> 100,> 100,> 100,> 100,> 100,> 100,> 100,> 100,> 100
CC(O)C(F)(F)C(F)(F)F (stereo not given) [1-Pentafluoroethylethanol],> 100,> 100,> 100,> 100,> 100,> 100,> 100,> 100,> 100,> 100,> 100,> 100,> 100,> 100,> 100,> 100,> 100,> 100,> 100,> 100
"OCC(F)(F)C(F)(F)C(F)(F)C(F)F [1H,1H,5H-Perfluoropentanol]",> 100,> 100,> 100,> 100,> 100,> 100,> 100,> 100,> 100,> 100,> 100,> 100,> 100,> 100,> 100,> 100,> 100,> 100,> 100,> 100
"O=S(=O)(OCC(F)(F)F)C(F)(F)C(F)(F)C(F)(F)C(F)(F)F [2,2,2-Trifluoroethyl_perfluorobutanesulfonate]",> 100,> 100,> 100,> 100,> 100,> 100,> 100,> 100,> 100,> 100,> 100,> 100,> 100,> 100,> 100,> 100,> 100,> 100,> 100,> 100
"O=C(O)C(F)(F)C(F)(F)C(F)F [2,2,3,3,4,4-Hexafluorobutanoic_acid]",> 100,> 100,–,> 100,> 100,> 100,> 100,> 100,> 100,> 100,> 100,> 100,> 100,> 100,> 100,> 100,> 100,0.125,> 100,> 100
NC(O)(C(F)(F)F)C(F)(F)F [2-Aminohexafluoropropan-2-ol],> 100,> 100,> 100,> 100,> 100,> 100,> 100,> 100,> 100,> 100,> 100,> 100,> 100,> 100,> 100,> 100,> 100,> 100,> 100,> 100
"O=C(O)CCC(F)(F)C(F)(F)C(F)(F)C(F)(F)C(F)(F)F [2H,2H,3H,3H-Perfluorooctanoic_acid]",> 100,> 100,> 100,> 100,> 100,> 100,> 100,> 100,> 100,> 100,> 100,> 100,> 100,> 100,> 100,> 100,> 100,> 100,> 100,> 100
"O=C(O)C=C(C(F)(F)F)C(F)(F)F [3,3-Bis(trifluoromethyl)-2-propenoic_acid]",> 100,> 100,> 100,> 100,> 100,> 100,> 100,> 100,> 100,> 100,> 100,> 100,> 100,> 100,> 100,> 100,> 100,> 100,> 100,> 100
O=C(O)C=CC(F)(C(F)(F)F)C(F)(F)F [3-(Perfluoroisopropyl)-2-propenoic_acid],> 100,> 100,> 100,> 100,> 100,> 100,> 100,> 100,> 100,> 100,> 100,> 100,> 100,> 100,> 100,> 100,> 100,> 100,> 100,> 100
O=C(O)CCC(F)(F)C(F)(F)C(F)(F)C(F)(F)C(F)(F)C(F)(F)C(F)(F)F [3-Perfluoroheptylpropanoic_acid],> 100,> 100,> 100,> 100,> 100,> 100,> 100,> 100,> 100,> 100,> 100,> 100,> 100,> 100,> 100,> 100,> 100,> 100,> 100,> 100
O=C(O)CCC(F)(F)C(F)(F)C(F)(F)F [3:3 Fluorotelomer carboxylic acid],> 100,> 100,> 100,> 100,> 100,> 100,> 100,> 100,> 100,> 100,> 100,> 100,> 100,> 100,> 100,> 100,> 100,> 100,> 100,> 100
OCCC(F)(F)C(F)(F)C(F)(F)C(F)(F)F [4:2 Fluorotelomer alcohol],> 100,> 100,> 100,> 100,> 100,> 100,> 100,> 100,> 100,> 100,> 100,> 100,> 100,49.9,> 100,> 100,> 100,–,> 100,> 100
O=C([O-])C(F)(F)C(F)(F)C(F)(F)C(F)(F)C(F)(F)C(F)(F)C(F)(F)F.[NH4+] [Ammonium_perfluorooctanoate],> 100,> 100,–,> 100,> 100,> 100,> 100,> 100,> 100,> 100,> 100,> 100,> 100,> 100,> 100,> 100,> 100,> 100,> 100,> 100
OCC(F)(F)OC(F)(F)C(F)(F)OC(F)(F)C(F)(F)OC(F)(F)F [Fluorinated_triethylene_glycol_monomethyl_ether],> 100,> 100,> 100,> 100,> 100,–,> 100,> 100,> 100,–,> 100,–,> 100,> 100,–,0.358,> 100,> 100,2.04,–
CN(CCO)S(=O)(=O)C(F)(F)C(F)(F)C(F)(F)C(F)(F)C(F)(F)C(F)(F)C(F)(F)C(F)(F)F [N-Methyl-N-(2-hydroxyethyl)perfluorooctanesulfonamide],–,–,> 100,> 100,> 100,> 100,> 100,> 100,> 100,–,0.199,> 100,> 100,> 100,> 100,> 100,> 100,> 100,> 100,> 100
O=C(O)C(F)(F)C(F)(F)C(F)(F)C(F)(F)C(=O)O [Octafluoroadipic_acid],> 100,> 100,> 100,> 100,> 100,> 100,> 100,> 100,> 100,> 100,> 100,23.3,> 100,> 100,> 100,> 100,–,> 100,54.6,–
O=S(=O)(O)C(F)(F)C(F)(F)C(F)(F)C(F)(F)F [Perfluorobutanesulfonic_acid],> 100,> 100,–,> 100,> 100,> 100,> 100,> 100,> 100,> 100,> 100,> 100,> 100,> 100,> 100,> 100,> 100,> 100,> 100,> 100
O=C(O)C(F)(F)C(F)(F)C(F)(F)C(F)(F)C(F)(F)C(F)(F)F [Perfluoroheptanoic_acid],> 100,> 100,> 100,> 100,> 100,> 100,> 100,> 100,> 100,> 100,> 100,–,> 100,> 100,> 100,56.8,> 100,> 100,> 100,> 100
